Columns and labels:
MCF7 = test: cells; conditions: Homo sapiens, MCF7, 72 h
Description: Cytotoxicity against human MCF7 cells assessed as reduction in cell viability after 72 hrs by MTT assay

A549 = test: Cytotoxicity against human A549 cells assessed as reduction in cell viability after 72 hrs by MTT assay; assay type: functional, cell-based; conditions: A549, 72 h
Micrococcus luteus = test: Antimicrobial activity against Micrococcus lutes assessed as reduction in microbial growth incubated for 24 hrs by agar dilution method; assay type: functional
HeLa = test: Cytotoxicity against human HeLa cells assessed as reduction in cell viability after 72 hrs by MTT assay; assay type: functional, cell-based

Compound	IC50 (MCF7)	IC50 (A549)	MIC (Micrococcus luteus)	IC50 (HeLa)
CC(=O)C(=O)N[C@@H]1/C=C(C)/C=C\[C@@H](O)C/C=C(C)/C=C/[C@@H](O)C[C@H]2OC(=O)[C@]1(C)C(=O)[C@@H]2C	> 100 µM	> 100 µM	6.2 µM	23.3 µM
CC(=O)O[C@@H]1/C=C/C(C)=C/C[C@H](O)/C=C/C(C)=C/[C@@H](NC(=O)[C@H](C)O)[C@]2(C)C(=O)O[C@H](C1)[C@@H](C)C2=O	47.1 µM	> 100 µM	–	48.2 µM
CC(=O)O[C@H]1C(=O)[C@@]2(C)[C@H]([C@H](OC(=O)c3ccccc3)[C@]3(O)C[C@H](OC(=O)[C@H](O)[C@@H](NC(=O)c4ccccc4)c4ccccc4)C(C)=C1C3(C)C)[C@]1(OC(C)=O)CO[C@@H]1C[C@@H]2O [PACLITAXEL]	> 0.0811 µM	0.0295 µM	–	< 0.00625 µM
CC1=C\C[C@H](O)/C=C/C(C)=C/[C@@H](NC(=O)[C@H](C)O)[C@]2(C)C(=O)O[C@H](C[C@H](O)\C=C\1)[C@@H](C)C2=O	75.7 µM	> 100 µM	–	24.8 µM
CC1=C\C[C@H](O)/C=C/C(C)=C/[C@@H](NC(=O)[C@H](C)O)[C@@H](C)C(=O)/C(C)=C/C[C@H](O)\C=C\1	42.8 µM	> 100 µM	–	45.4 µM
CC(=O)C(=O)N[C@@H]1/C=C(C)/C=C/[C@@H](O)C/C=C(C)/C=C/[C@@H](O)C/C=C(\C)C(=O)[C@H]1C	> 100 µM	> 100 µM	–	72.9 µM
CC1=C\C[C@H](O)/C=C/C(C)=C/[C@@H](NC(=O)[C@H](C)O)[C@H](C)C(=O)/C(C)=C/C[C@H](O)\C=C\1	> 100 µM	> 100 µM	–	13.3 µM
CC(=O)C(=O)N[C@@H]1/C=C(C)/C=C/[C@@H](O)C/C=C(C)/C=C/[C@@H](O)C/C=C(\C)C(=O)[C@@H]1C	> 100 µM	> 100 µM	–	> 100 µM
O=c1[nH]cc(F)c(=O)[nH]1 [FLUOROURACIL]	22.8 µM	6.6 µM	–	32.1 µM

Source: ChEMBL document CHEMBL5143544, “Chemoenzymatic synthesis, computational investigation, and antitumor activity of monocyclic lankacidin derivatives” (Bioorg Med Chem, 2022)
